# Assay results: PMC5225172 (Cancer Chemotherapy and Pharmacology, 2016)
# Entries after “also recorded” stand apart in the source; their conditions may differ.
# What was measured:
# clinical = settings: human, in vivo
# Method: Additional PK samples were collected at either 72, 96, or 120 h following the start of infusion. […] Blood pressure monitoring was performed every 5 min before dosing on cycle 1, day 1 until the observation of two consecutive measurements <150 mmHg (systolic) and <90 mmHg (diastolic). […] Serum samples for glucose analysis were collected immediately before the first infusion and in parallel with PK sampling through to 49 h post-dose. Glucose samples taken at 25 h post-dose were to be fasting, where possible and if deemed safe. Capillary blood glucose testing was to be performed for hyperglycemia management as determined appropriate by the investigator; hyperglycemia was defined as capillary blood glucose >200 mg/dL and was to be treated with short-acting insulin. Tumor measurement and disease assessment according to RECIST version 1.1 were conducted every two cycles by the investigator. This study was primarily a descriptive safety and tolerability trial, and no formal sample-size estimation was performed. Summary statistics were used for demographics, baseline characteristics, and PK parameters. Frequency tables were used for categorical variables.
# [1] = test system: advanced or refractory solid tumors; assay: Tumor response and disease assessment by RECIST version 1.1; type: in vivo, human
# Excerpt: Screening comprised: provision of written, informed consent; demographics; baseline characteristics; concomitant medications; safety assessments (adverse events [defined as any new finding not present in the patient’s medical history, or a worsening of a prior medical history finding], vital signs, laboratory tests, physical examination, 12-lead electrocardiogram, multigated acquisition scan, or echocardiogram); tumor measurements by computed tomography or magnetic resonance imaging; disease assessment as defined by RECIST version 1.1; ophthalmologic examination; chest computed tomography; and ECOG PS assessment. The following assessments were also performed on cycle 1, day 1: safety; ECOG PS assessment; concomitant medications; blood samples for PK analysis; serum samples for glucose analysis; serum insulin; urinalysis; serum ketones; and post-dose echocardiogram. Safety assessments, blood pressure measurements, blood sampling for PK analysis, and urinalysis were also performed on days 8 and 15 of cycle 1.
# Additional PK samples were collected at either 72, 96, or 120 h following the start of infusion. PK samples were also collected on cycle 1, day 15 at 0, 0.5, 1, 1.5, 2, 3, 5, 8, 11, and 25 h following the start of infusion and on cycle 3, day 15 at 0, 0.5, 1, 1.5, 2, 3, 5, and 8 h following the start of infusion. Blood pressure monitoring was performed every 5 min before dosing on cycle 1, day 1 until the observation of two consecutive measurements <150 mmHg (systolic) and <90 mmHg (diastolic). […] Serum samples for glucose analysis were collected immediately before the first infusion and in parallel with PK sampling through to 49 h post-dose. Glucose samples taken at 25 h post-dose were to be fasting, where possible and if deemed safe. Capillary blood glucose testing was to be performed for hyperglycemia management as determined appropriate by the investigator; hyperglycemia was defined as capillary blood glucose >200 mg/dL and was to be treated with short-acting insulin. Tumor measurement and disease assessment according to RECIST version 1.1 were conducted every two cycles by the investigator.
smiles,measurement,setting,value
"COc1c(OCCCN2CCOCC2)ccc2c1N=C(NC(=O)c1cnc(N)nc1)N1CCN=C21 [copanlisib, Copanlisib]",half-life,"clinical; 0.4 mg/kg, Geometric mean terminal half-life",~1920 min
same,half-life,"clinical; 0.8 mg/kg, Geometric mean terminal half-life",~2160 min
same,half-life,"clinical; 0.8 mg/kg, Plasma half-life",1920 to 2160 min
same,AUC,"clinical; iv, 0.4 mg/kg",1400 ng·h/mL
same,AUC(0-t),"clinical; iv, 0.4 mg/kg, AUC(0–8)",483 ng·h/mL
same,AUC(0-t),"clinical; iv, 0.4 mg/kg, AUC(0–25)",789 ng·h/mL
same,Cmax,"clinical; iv, 0.4 mg/kg, C max",215 ng/mL
same,half-life,"clinical; iv, 0.4 mg/kg, t 1/2 (half-life associated with terminal slope)",1930 min
same,Tmax,"clinical; iv, 0.4 mg/kg, tmax",61.2 min
same,AUC,"clinical; iv, 0.8 mg/kg",2350 ng·h/mL
same,AUC(0–25),"clinical; iv, 0.8 mg/kg",1290 (10.1) µg·h/L
same,Tmax,"clinical; iv, 0.8 mg/kg",0.75 [0.48-1.05] h
same,AUC(0-t),"clinical; iv, 0.8 mg/kg, AUC(0–8)",812 ng·h/mL
same,AUC(0-t),"clinical; iv, 0.8 mg/kg, AUC(0–25)",1280 ng·h/mL
same,half-life,"clinical; iv, 0.8 mg/kg, t1/2 (half-life associated with terminal slope)",2140 min
same,Tmax,"clinical; iv, 0.8 mg/kg, tmax",31.8 min
same,Best overall response: Complete response,"[1]; Cohort 1, 0.4 mg/kg (n = 3)",0 n (%)
same,Best overall response: Partial response,"[1]; Cohort 1, 0.4 mg/kg (n = 3)",0 n (%)
same,Best overall response: Progressive disease (by proven measurement),"[1]; Cohort 1, 0.4 mg/kg (n = 3)",2 (66.7) n (%)
same,Best overall response: Stable disease,"[1]; Cohort 1, 0.4 mg/kg (n = 3)",1 (33.3) n (%)
same,Overall disease control rate (complete response + partial response + stable disease),"[1]; Cohort 1, 0.4 mg/kg (n = 3)",1 (33.3) n (%)
same,Overall response rate (complete response + partial response),"[1]; Cohort 1, 0.4 mg/kg (n = 3)",0 n (%)
same,Best overall response: Complete response,"[1]; Cohort 2, 0.8 mg/kg (n = 7)",0 n (%)
same,Best overall response: Partial response,"[1]; Cohort 2, 0.8 mg/kg (n = 7)",0 n (%)
same,Best overall response: Progressive disease (by proven measurement),"[1]; Cohort 2, 0.8 mg/kg (n = 7)",4 (57.1) n (%)
same,Best overall response: Stable disease,"[1]; Cohort 2, 0.8 mg/kg (n = 7)",3 (42.9) n (%)
same,Overall disease control rate (complete response + partial response + stable disease),"[1]; Cohort 2, 0.8 mg/kg (n = 7)",3 (42.9) n (%)
same,Overall response rate (complete response + partial response),"[1]; Cohort 2, 0.8 mg/kg (n = 7)",0 n (%)
same,Best overall response: Complete response,[1]; Total (n = 10),0 n (%)
same,Best overall response: Partial response,[1]; Total (n = 10),0 n (%)
same,Best overall response: Progressive disease (by proven measurement),[1]; Total (n = 10),6 (60.0) n (%)
same,Best overall response: Stable disease,[1]; Total (n = 10),4 (40.0) n (%)
same,Overall disease control rate (complete response + partial response + stable disease),[1]; Total (n = 10),4 (40.0) n (%)
same,Overall response rate (complete response + partial response),[1]; Total (n = 10),0 n (%)
same,Disease control rate,"[1]; cohort 1, 0.4 mg/kg",33.3%
same,Median time to progression,"[1]; cohort 1, 0.4 mg/kg, 95% CI 50–77",52 days
same,"Time to progression, single patient","[1]; cohort 1, stable disease as best response",77 days
same,Disease control rate,"[1]; cohort 2, 0.8 mg/kg",42.9%
same,Median time to progression,"[1]; cohort 2, 0.8 mg/kg, 95% CI 21–not estimated",53 days
same,"Time to progression, single patient (censored)","[1]; cohort 2, gastrointestinal stromal tumor, stable disease, discontinued for thrombocytopenia",176 days
same,"Time to progression, single patient","[1]; cohort 2, stable disease as best response",82 days
same,"Time to progression, single patient (censored)","[1]; cohort 2, stable disease, discontinued because of grade 3 diarrhea",50 days
same,Rate of progression-free survival,"[1]; overall, after 1 month",0.80 (95% CI 0.41–0.95)
same,Rate of progression-free survival,"[1]; overall, after 2 months",0.35 (95% CI 0.08–0.64)
same,Rate of progression-free survival,"[1]; overall, after 3 months",0.12 (95% CI 0.01–0.40)
same,Median time to progression,"[1]; overall, 95% CI 21–82",52 days
same,Complete or partial response,[1]; ten patients,No patients achieved a complete or partial response; also recorded: none experienced a complete or partial response
same,Disease control rate,[1]; ten patients,40%
same,Progressive disease as best response,[1]; ten patients,60.0%
same,Stable disease as best response,[1]; ten patients,40.0%
